One compound from patent US10881653B2, “Tricyclic compounds and their use in the treatment of cancer” (The United States of America, as represented by the …, priority 2015, dated 2021) can be followed below.

The target of assay [1] is T1, recombinant thioredoxin reductase 1 (TrxR1) (Homo sapiens, UniProt Q16881).
T1 sequence (Q16881 1-649): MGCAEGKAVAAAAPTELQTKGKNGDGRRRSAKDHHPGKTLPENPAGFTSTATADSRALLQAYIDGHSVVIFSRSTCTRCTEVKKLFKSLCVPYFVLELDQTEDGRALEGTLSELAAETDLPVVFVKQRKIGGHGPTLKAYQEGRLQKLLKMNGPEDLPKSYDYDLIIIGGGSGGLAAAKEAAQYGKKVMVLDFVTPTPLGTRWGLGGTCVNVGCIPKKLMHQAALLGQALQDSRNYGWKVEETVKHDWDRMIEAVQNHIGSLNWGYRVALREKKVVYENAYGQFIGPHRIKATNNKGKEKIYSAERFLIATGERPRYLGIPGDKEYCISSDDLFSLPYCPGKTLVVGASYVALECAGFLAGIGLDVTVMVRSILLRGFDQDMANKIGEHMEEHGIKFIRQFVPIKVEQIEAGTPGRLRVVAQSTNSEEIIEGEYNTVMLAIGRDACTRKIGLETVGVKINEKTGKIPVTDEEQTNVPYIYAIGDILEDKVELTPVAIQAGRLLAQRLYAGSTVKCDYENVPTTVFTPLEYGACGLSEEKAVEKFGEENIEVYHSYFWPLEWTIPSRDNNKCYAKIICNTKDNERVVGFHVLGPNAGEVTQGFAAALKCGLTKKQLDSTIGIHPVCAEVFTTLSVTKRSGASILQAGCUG
Briefly: Inhibition of recombinant TrxR1 (DTNB assay). It counts as biochemical. Summed up:
(§1)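 Human TrxR1 (15 nM) or GR (2 nM) preincubated 15 min with compound, 250 μM NADPH, 0.1 mg/ml BSA in 50 mM Tris pH 7.5, 2 mM EDTA, 1% DMSO. Reaction started with 2.5 mM DTNB (TrxR1, A412) or 1 mM GSSG (GR, A340). Percent activity relative to DMSO and no-enzyme blanks.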

For assay [2], the target named is T2, gluthathione reductase (GR) (Homo sapiens, UniProt P00390).
T2 sequence (P00390 44-522): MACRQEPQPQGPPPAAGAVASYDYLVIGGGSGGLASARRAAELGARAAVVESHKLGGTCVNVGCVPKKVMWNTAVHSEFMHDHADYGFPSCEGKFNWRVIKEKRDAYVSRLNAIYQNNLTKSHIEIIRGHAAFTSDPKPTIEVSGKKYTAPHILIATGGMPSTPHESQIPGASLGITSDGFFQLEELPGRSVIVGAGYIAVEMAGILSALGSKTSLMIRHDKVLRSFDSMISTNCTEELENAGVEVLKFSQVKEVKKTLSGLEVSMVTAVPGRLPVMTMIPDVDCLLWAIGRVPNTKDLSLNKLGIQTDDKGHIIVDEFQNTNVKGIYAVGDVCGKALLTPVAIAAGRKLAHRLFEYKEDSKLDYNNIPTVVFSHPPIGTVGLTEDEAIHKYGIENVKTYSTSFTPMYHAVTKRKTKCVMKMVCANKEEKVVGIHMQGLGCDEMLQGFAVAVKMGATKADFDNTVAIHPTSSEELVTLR
Kind of assay: Inhibition of recombinant GR (GSSG assay). It is filed as biochemical. Summed up: as §1

Another assay has as its system A498. Kind of assay: Cell growth inhibition GI50. Particulars: Homo sapiens, Renal Cancer. It counts as cell-based. On the procedure: (§2) Cell lines were plated 2000 cells/well in 96-well black optical plates in the presence of 10% FBS media containing 25 nM selenite. The following day cells were treated with various concentrations of the compound of Example 1 (0.1% DMSO final) and incubated for 72 hrs. After the incubation Cell-Quanti Blue reagent was added to each well and incubated for additional 3 hrs. Fluorescence was read ex:530 nm/em:590 nm, and percent of viability was determined using DMSO vehicle and no cell (blank) controls.
(§3) Further results obtained in similar experiments were as indicated below (GI50 refers to concentration of compound yielding 50% growth inhibition; E denotes an exponent to the base 10).

The subject of a further assay is CCRF-CEM. Briefly: Cell growth inhibition GI50. It is filed as cell-based. The conditions noted are these: Homo sapiens, Leukemia. The procedure:
as §2, §3

The subject of another assay is DU-145. Briefly: Cell growth inhibition GI50. Particulars: Homo sapiens, Prostate Cancer. It is filed as cell-based. On the procedure: as §2, §3
The next assay relates to HL-60(TB). Kind of assay: Cell growth inhibition GI50. It counts as cell-based. Particulars: Homo sapiens, Leukemia. On the procedure:
as §2, §3

Another assay concerns HOP-92. Kind of assay: Cell growth inhibition GI50. It counts as cell-based. Particulars: Homo sapiens, Non-Small Cell Lung Cancer. The procedure:
as §2, §3

A further assay deals with IGROV1. Kind of assay: Cell growth inhibition GI50. Particulars: Homo sapiens, IGROV-1, Ovarian Cancer. It counts as cell-based. On the procedure: as §2, §3
The subject of another assay is K-562. Briefly: Cell growth inhibition GI50. The conditions noted are these: Homo sapiens, K562, Leukemia. It is filed as cell-based. The procedure: as §2, §3
The subject of another assay is KM12. Kind of assay: Cell growth inhibition GI50. It counts as cell-based. The conditions noted are these: Homo sapiens, Colon Cancer. On the procedure:
as §2, §3

A further assay relates to M14. Kind of assay: Cell growth inhibition GI50. It counts as cell-based. Particulars: Homo sapiens, Melanoma. On the procedure: as §2, §3
The test system of a further assay is MDA-MB-435. Briefly: Cell growth inhibition GI50. It counts as cell-based. Particulars: Homo sapiens, Melanoma. The procedure:
as §2, §3

For the next assay, the system named is MDA-N. Kind of assay: Cell growth inhibition GI50. It is filed as cell-based. Particulars: Homo sapiens, Melanoma. On the procedure:
as §2, §3

A further assay has as its system NCI-H322M. Briefly: Cell growth inhibition GI50. It is filed as cell-based. Particulars: Homo sapiens, Non-Small Cell Lung Cancer. On the procedure:
as §2, §3

A further assay concerns OVCAR-4. Briefly: Cell growth inhibition GI50. It counts as cell-based. The conditions noted are these: Homo sapiens, Ovarian Cancer. The procedure:
as §2, §3

A further assay relates to SF-268. Briefly: Cell growth inhibition GI50. It counts as cell-based. The conditions noted are these: Homo sapiens, CNS Cancer. On the procedure:
as §2, §3

The test system of another assay is SNB-19. Briefly: Cell growth inhibition GI50. It is filed as cell-based. The conditions noted are these: Homo sapiens, CNS Cancer. On the procedure: as §2, §3
A further assay deals with SW-620. Briefly: Cell growth inhibition GI50. It is filed as cell-based. The conditions noted are these: Homo sapiens, Colon Cancer. The procedure:
as §2, §3

A further assay relates to U251. Briefly: Cell growth inhibition GI50. It is filed as cell-based. Particulars: Homo sapiens, U-251, CNS Cancer. On the procedure:
as §2, §3

The subject of another assay is UACC-62. Kind of assay: Cell growth inhibition GI50. It is filed as cell-based. The conditions noted are these: Homo sapiens, Melanoma. The procedure:
as §2, §3

Each structure is given as a SMILES string. Structures can show the parent of a compound that is named as a salt. Where two headings read alike, the source gives them in different places.

In general, GI50 refers to the concentration giving 50% growth inhibition. The low end stands for more potent growth inhibition, the high end for less potent growth inhibition. In the case of `O=C1C=C[C@H]2[C@@H]3C(=O)N(c4ccccc4)C(=O)[C@@H]3[C@@H]1N2Cc1ccccc1` (relative stereo) [Example 1, exo-11-Benzyl-4-phenyl-4,11-diazatricyclo[5.3.1.0^2,6]undec-9-ene-3,5,8-trione Trifluoroacetate], the IC50 in assay [1] (Biological Example 1, 15 nM TrxR1, 250 μM NADPH, 15 minutes incubation, read-out: TrxR inhibition) was 2140 nM; in assay [1] (Biological Example 4, assays of Biological Example 1, read-out: TrxR Inhibition), 2190 nM; in [2] (Biological Example 1, 2 nM GR, 250 μM NADPH, 15 minutes incubation) it was above 100000 nM; in assay [2] (Biological Example 4, assays of Biological Example 1), above 100000 nM. Further, the GI50 amounted to 8570 nM in the assay on A498; 942 nM in the assay on CCRF-CEM; 9660 nM in the assay with DU-145; 1170 nM in the assay with HL-60(TB); 3660 nM with HOP-92; 4810 nM with IGROV1. The GI50 was determined as 1670 nM in the assay on K-562; 2560 nM with KM12; 2600 nM in the assay with M14; 2720 nM with MDA-MB-435; 3140 nM in the assay with MDA-N; 10200 nM in the assay on NCI-H322M. Further, the GI50 is 5530 nM in the assay on OVCAR-4; 3340 nM with SF-268; 6040 nM with SNB-19; 1860 nM with SW-620; 2290 nM with U251; 2010 nM with UACC-62.
